Results as given in paper PMC7731220, “Pharmacophore Modeling and 3D-QSAR Study of Indole and Isatin Derivatives as Antiamyloidogenic Agents Targeting Alzheimer’s Disease” (Molecules, 2020).

Target: T1, Aβ40 (Homo sapiens, UniProt P05067)
T1 sequence (P05067 672-711 limits assumed): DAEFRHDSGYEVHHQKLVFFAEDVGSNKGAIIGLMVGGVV
Test: not given
Conditions: supplement, training set; 100 µM; cited from earlier work
In the case of O=C1C(=CNNc2ccccc2)C(=O)c2ccccc21 [Compound S1], the “% inhib. @ 100 µM” value is given as 49±2.0%.
In the case of Cc1ccc(NNC=C2C(=O)c3ccccc3C2=O)cc1 [Compound S2], the “% inhib. @ 100 µM” value is given as 44±4.0%.
For O=c1c(=NNc2ccc(Cl)cc2)c(=O)c2ccccc12 [Compound S7], the “% inhib. @ 100 µM” value is given as 38±5.3%.
For O=C1C(/C=N/Nc2ccc(Cl)cc2)=Nc2ccccc21 [Compound S13], the “% inhib. @ 100 µM” value is given as 33±1.0%.
For O=C1C(/C=N/Nc2ccc(Cl)cc2)=Nc2ccc(Br)cc21 [Compound S19], the “% inhib. @ 100 µM” value is given as 46±7.0%.
For O=C1C(/C=N/Nc2ccc(Cl)c(Cl)c2)=Nc2ccc(Br)cc21 [Compound S20], the “% inhib. @ 100 µM” value is given as 23±2.3%.
For COc1ccc2c(c1)/C(=N/Nc1cccc(Cl)c1)C(=O)N2 [Compound S26], the “% inhib. @ 100 µM” value is given as 72±1%.
For COc1ccc2c(c1)/C(=N/Nc1ccc(Cl)cc1)C(=O)N2 [Compound S27], the “% inhib. @ 100 µM” value is given as 43±2%.
In the case of COc1ccc2c(c1)/C(=N/Nc1ccc(C)cc1)C(=O)N2 [Compound S28], the “% inhib. @ 100 µM” value is given as 29±4%.
For COc1ccc2c(c1)/C(=N/Nc1ccc(C(C)(C)C)cc1)C(=O)N2 [Compound S30], the “% inhib. @ 100 µM” value is listed as 66±4%.
For COc1ccc2c(c1)/C(=N/Nc1cccc(C(C)(C)C)c1)C(=O)N2 [Compound S32], the “% inhib. @ 100 µM” value is given as 56±2%.
For COc1cc2c(cc1OC)/C(=N/Nc1ccccc1Cl)C(=O)N2 [Compound S37], the “% inhib. @ 100 µM” value is listed as 70±3%.
In the case of O=C1Nc2ccccc2/C1=N/Nc1cccc(F)c1 [Compound S42], the “% inhib. @ 100 µM” value is listed as 52±0.9%.
In the case of O=C1Nc2cc(Cl)c(F)cc2/C1=N/Nc1ccc(Cl)cc1 [Compound S43], the “% inhib. @ 100 µM” value is given as 28±3.7%.
In the case of O=C1Nc2ccc(Br)cc2/C1=N/Nc1ccc(Cl)cc1 [Compound S44], the “% inhib. @ 100 µM” value is listed as 63±4%.
In the case of O=C1Nc2ccc([N+](=O)[O-])cc2/C1=N/Nc1ccc(Cl)cc1 [Compound S45], the “% inhib. @ 100 µM” value is listed as 12±2%.
In the case of O=C1Nc2ccc(O)cc2/C1=N/Nc1ccccc1 [Compound S47], the “% inhib. @ 100 µM” value is listed as 62±3%.
For O=C1Nc2ccc(O)cc2/C1=N/Nc1ccc(O)cc1 [Compound S50], the “% inhib. @ 100 µM” value is listed as 61±2%.
In the case of O=C1Nc2ccccc2/C1=N/Nc1ccccc1Cl [Compound S53], the “% inhib. @ 100 µM” value is listed as 44±5%.
For O=C1Nc2ccccc2/C1=N/Nc1cccc(Cl)c1 [Compound S60], the “% inhib. @ 100 µM” value is listed as 39±5%.
For O=C1Nc2ccccc2/C1=N/Nc1ccc(Cl)cc1 [Compound S61], the “% inhib. @ 100 µM” value is given as 24±4.9%.
In the case of O=C1Nc2ccccc2/C1=N/Nc1ccc(OC(F)(F)F)cc1 [Compound S62], the “% inhib. @ 100 µM” value is given as 57±3%.
In the case of O=C1Nc2ccccc2/C1=N/Nc1cccc([N+](=O)[O-])c1 [Compound S63], the “% inhib. @ 100 µM” value is given as 29±1.2%.
For CC(C)c1ccc(N/N=C2\C(=O)Nc3ccccc32)cc1 [Compound S64], the “% inhib. @ 100 µM” value is listed as 64±4%.

Same assay, conditions: supplement, training set; 100 µM; ± SD; cited from earlier work
In the case of CC(C)c1ccc(N/N=C2\C(=O)Nc3c(Br)cccc32)cc1 [Compound S80], the “% inhib. @ 100 µM” value is given as 1±9.3%.

Same assay, conditions: supplement, training set; cited from earlier work
For CC(C)c1ccc(NNC=C2C(=O)c3ccccc3C2=O)cc1 [Compound S3], the IC50 is given as 18 µM.
In the case of O=C1C(=CNNc2ccccc2Cl)C(=O)c2ccccc21 [Compound S4], the IC50 is given as 32 µM.
In the case of O=C1C(=CNNc2cccc(Cl)c2)C(=O)c2ccccc21 [Compound S5], the IC50 is listed as 18 µM.
For O=C1C(=CNNc2ccc(Cl)cc2)C(=O)c2ccccc21 [Compound S6], the IC50 is given as 23 µM.
In the case of Cc1ccc(N/N=C/C2=Nc3ccccc3C2=O)cc1 [Compound S9], the IC50 is given as 3.6 µM.
For CC(C)c1ccc(N/N=C/C2=Nc3ccccc3C2=O)cc1 [Compound S10], the IC50 is listed as 1.4 µM.
In the case of O=C1C(/C=N/Nc2ccccc2Cl)=Nc2ccccc21 [Compound S11], the IC50 is listed as 13 µM.
For O=C1C(/C=N/Nc2cccc(Cl)c2)=Nc2ccccc21 [Compound S12], the IC50 is given as 2.5 µM.
For O=C1C(/C=N/Nc2ccccc2)=Nc2ccc(Br)cc21 [Compound S14], the IC50 is listed as 35 µM.
In the case of Cc1ccc(N/N=C/C2=Nc3ccc(Br)cc3C2=O)cc1 [Compound S15], the IC50 is given as 51 µM.
In the case of CC(C)c1ccc(N/N=C/C2=Nc3ccc(Br)cc3C2=O)cc1 [Compound S16], the IC50 is given as 23 µM.
For O=C1C(/C=N/Nc2ccccc2Cl)=Nc2ccc(Br)cc21 [Compound S17], the IC50 is listed as 7.8 µM.
In the case of O=C1C(/C=N/Nc2cccc(Cl)c2)=Nc2ccc(Br)cc21 [Compound S18], the IC50 is listed as 4.4 µM.
In the case of COc1ccc(N/N=C2\C(=O)Nc3ccccc32)cc1 [Compound S21], the IC50 is listed as 13 µM.
For COc1cc2c(cc1OC)/C(=N/Nc1ccccc1)C(=O)N2 [Compound S25], the IC50 is listed as 63 µM.
In the case of COc1ccc2c(c1)/C(=N/Nc1ccc(C(C)(C)C)cc1)C(=O)N2 [Compound S30], the IC50 is listed as 15 µM.
In the case of COc1ccc(N/N=C2\C(=O)Nc3ccc(OC)cc32)cc1 [Compound S33], the IC50 is given as 3.7 µM.
For COc1ccc2c(c1)NC(=O)/C2=N\Nc1ccc(C(C)C)cc1 [Compound S36], the IC50 is listed as 7.1 µM.
In the case of COc1cc2c(cc1OC)/C(=N/Nc1cccc(Cl)c1)C(=O)N2 [Compound S38], the IC50 is given as 17 µM.
In the case of COc1cc2c(cc1OC)/C(=N/Nc1ccc(Cl)cc1)C(=O)N2 [Compound S39], the IC50 is listed as 33 µM.
For COc1cc2c(cc1OC)/C(=N/Nc1ccc(C(C)C)cc1)C(=O)N2 [Compound S40], the IC50 is listed as 4.4 µM.
For COc1ccc(N/N=C2\C(=O)Nc3cc(OC)c(OC)cc32)cc1 [Compound S41], the IC50 is given as 22 µM.
For O=C1Nc2ccccc2/C1=N/Nc1ccc(O)cc1 [Compound S46], the IC50 is given as 9.3 µM.
In the case of O=C1Nc2ccc(O)cc2/C1=N/Nc1cccc(Cl)c1 [Compound S48], the IC50 is listed as 18 µM.
For CC(C)c1ccc(N/N=C2\C(=O)Nc3ccc(O)cc32)cc1 [Compound S49], the IC50 is given as 21 µM.
For O=C1Nc2cc(O)ccc2/C1=N/Nc1ccccc1 [Compound S51], the IC50 is listed as 22 µM.
In the case of CC(C)c1ccc(N/N=C2\C(=O)Nc3cc(O)ccc32)cc1 [Compound S52], the IC50 is given as 6 µM.
For O=C1Nc2cc(O)c(O)cc2/C1=N/Nc1ccccc1 [Compound S54], the IC50 is given as 4.3 µM.
For O=C1Nc2cc(O)c(O)cc2/C1=N/Nc1ccccc1Cl [Compound S55], the IC50 is given as 11 µM.
In the case of O=C1Nc2cc(O)c(O)cc2/C1=N/Nc1ccc(Cl)cc1 [Compound S57], the IC50 is given as 17 µM.
In the case of CC(C)c1ccc(N/N=C2\C(=O)Nc3cc(O)c(O)cc32)cc1 [Compound S58], the IC50 is given as 1.6 µM.
For O=C1Nc2cc(O)c(O)cc2/C1=N/Nc1ccc(O)cc1 [Compound S59], the IC50 is given as 24 µM.
In the case of COc1ccc2c(c1)/C(=N/Nc1nc(CCl)cs1)C(=O)N2 [Compound S67], the IC50 is given as 13 µM.
In the case of COc1ccc2c(c1)/C(=N/Nc1nc(-c3cccc(O)c3)cs1)C(=O)N2 [Compound S70], the IC50 is given as 16 µM.
For COc1cccc(-c2csc(N/N=C3\C(=O)Nc4ccc(OC)cc43)n2)c1 [Compound S71], the IC50 is listed as 34 µM.
For COc1ccc2c(c1)/C(=N/Nc1nc(-c3cccc(Br)c3)cs1)C(=O)N2 [Compound S72], the IC50 is given as 40 µM.
In the case of COc1ccc2c(c1)/C(=N/N(C)c1ccc(C(C)C)cc1)C(=O)N2C [Compound S73], the IC50 is listed as 11 µM.
In the case of COc1ccc2c(c1)/C(=N/Nc1cccc3ccccc13)C(=O)N2 [Compound S87], the IC50 is listed as 28 µM.
For COc1ccc2c(c1)/C(=N/N=C/c1ccc(C(C)C)cc1)C(=O)N2 [Compound S89], the IC50 is listed as 6.7 µM.
In the case of COc1ccc2c(c1)/C(=N/N=C/c1cccc(Cl)c1)C(=O)N2 [Compound S90], the IC50 is given as 11 µM.
For Oc1ccc2[nH]cc(/C=N/Nc3ccc(Cl)cc3)c2c1 [Compound S92], the IC50 is given as 21 µM.

Same assay, conditions: supplement; 100 µM; value marked (II); cited from earlier work
For O=C1Nc2ccccc2/C1=N/Nc1ccccc1 [Compound S31], the “% inhib. @ 100 µM (II)” value is given as 61±0.7%.

Target: T1, Aβ40
Test: Inhibition of Aβ40 self-aggregation (thioflavin T fluorescence, 2% HFIP)
Conditions: not given
In the case of COc1ccc2c(c1)C(=O)C(=O)N2CCCc1ccccc1 [Compound 12], the IC50 is reported as 19 ± 4 µM.
Work on O=C1Nc2ccccc2C1=NNc1ccc2ccccc2c1 [Compound 24, 3-(2-(Naphthalen-2-yl)hydrazono)indolin-2-one] yielded an IC50 of 10 ± 2 µM.
CC(C)c1ccc(NN=Cc2c[nH]c3ccccc23)cc1 [Compound 28, 3-((2-(4-Isopropylphenyl)hydrazono)methyl)-1H-indole] showed an IC50 of 18 ± 2 µM.
For Clc1cccc(N/N=C/c2c[nH]c3ccccc23)c1 [Compound 30], the IC50 was 13 ± 2 µM.
Compound COc1ccc2[nH]cc(C=NNc3cccc(Cl)c3)c2c1 [Compound 31, 3-((2-(3-Chlorophenyl)hydrazineylidene)methyl)-5-methoxy-1H-indole] has an IC50 of 9.2 ± 0.7 µM.
For COc1ccc2[nH]cc(/C=N/Nc3ccc(Cl)cc3)c2c1 [Compound 33], the IC50 was 22 ± 2 µM.
In the case of COc1ccc2[nH]cc(C=NNc3ccnc4cc(Cl)ccc34)c2c1 [Compound 36, 7-Chloro-4-(2-((5-methoxy-1H-indol-3-yl)methylene)hydrazineyl)quinoline], the IC50 is reported as 13 ± 1 µM.
In the case of Clc1c(C=NNc2ccccc2)[nH]c2ccc(Br)cc12 [Compound 40, 5-Bromo-3-chloro-2-((2-phenylhydrazineylidene)methyl)-1H-indole], the IC50 is reported as 25 ± 3 µM.

Same assay, conditions: read-out: Aβ40 Aggregation Inhibition % at 100 μM
With N/N=C1\C(=O)Nc2ccccc21 [Compound 2] the inhibition at 100 µM was 17 ± 2%.
For COc1ccc2c(c1)C(=O)C(=O)N2Cc1ccccc1 [Compound 10], the inhibition at 100 µM was 52 ± 1%.
In the case of COc1ccc2c(c1)C(=O)C(=O)N2C1CC1 [Compound 14], the inhibition at 100 µM is reported as 38 ± 5%.
CC(C)c1ccc(NN=C2C(=O)N(C3CC3)c3ccc(O)cc32)cc1 [Compound 20, 1-Cyclopropyl-5-hydroxy-3-(2-(4-isopropylphenyl)hydrazono)indolin-2-one] showed an inhibition at 100 µM of 26 ± 3%.
For O=C1Nc2ccccc2C1=NNc1cccc2cccnc12 [Compound 25, 3-(2-(Quinolin-8-yl)hydrazineylidene)indolin-2-one], the inhibition at 100 µM was 63 ± 5%.
With COc1ccc2[nH]cc(C=NNc3ccc(C#N)cc3)c2c1 [Compound 29, 4-(2-((5-Methoxy-1H-indol-3-yl)methylene)hydrazineyl)benzonitrile] the inhibition at 100 µM was 56 ± 1%.
With COc1ccc2[nH]cc(C=NNc3ccccn3)c2c1 [Compound 34, 5-Methoxy-3-((2-(pyridin-2-yl)hydrazineylidene)methyl)-1H-indole] the inhibition at 100 µM was 20 ± 2%.
CC(C)c1ccc(NN=Cc2[nH]c3ccc(Br)cc3c2Cl)cc1 [Compound 41, 5-Bromo-3-chloro-2-((2-(4-isopropylphenyl)hydrazineylidene)methyl)-1H-indole] gave an inhibition at 100 µM of 63 ± 6%.
With CC1(C)OC(=O)C(C=C2Nc3ccccc3C2=O)C(=O)O1 [Compound 44] the inhibition at 100 µM was 44 ± 1%.
